Some results are limits rather than exact numbers.

Data set [1] addresses T1, Peroxisome proliferator-activated receptor delta (Homo sapiens, UniProt Q03181).
T1 sequence (Q03181 whole entry): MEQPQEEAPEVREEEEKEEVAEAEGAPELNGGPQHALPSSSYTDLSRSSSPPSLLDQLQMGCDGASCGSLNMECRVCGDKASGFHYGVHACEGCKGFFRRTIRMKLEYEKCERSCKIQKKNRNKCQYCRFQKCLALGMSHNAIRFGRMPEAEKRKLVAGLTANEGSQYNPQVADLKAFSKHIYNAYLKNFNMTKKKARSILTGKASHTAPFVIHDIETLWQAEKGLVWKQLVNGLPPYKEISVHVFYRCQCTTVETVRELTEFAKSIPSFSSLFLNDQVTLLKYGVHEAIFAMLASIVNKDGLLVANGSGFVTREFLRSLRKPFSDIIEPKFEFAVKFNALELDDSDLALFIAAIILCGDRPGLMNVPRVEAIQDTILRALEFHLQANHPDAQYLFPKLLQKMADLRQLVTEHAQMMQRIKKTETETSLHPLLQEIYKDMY
The experiment in a line: Maximum transcriptional activation of human PPAR delta receptor.

Data set [2] has as its target T1, Peroxisome proliferator-activated receptor delta. In words: Binding affinity for human PPAR delta receptor.
Data set [3] deals with T2, Peroxisome proliferator-activated receptor gamma (Homo sapiens, UniProt P37231).
T2 sequence (P37231 whole entry): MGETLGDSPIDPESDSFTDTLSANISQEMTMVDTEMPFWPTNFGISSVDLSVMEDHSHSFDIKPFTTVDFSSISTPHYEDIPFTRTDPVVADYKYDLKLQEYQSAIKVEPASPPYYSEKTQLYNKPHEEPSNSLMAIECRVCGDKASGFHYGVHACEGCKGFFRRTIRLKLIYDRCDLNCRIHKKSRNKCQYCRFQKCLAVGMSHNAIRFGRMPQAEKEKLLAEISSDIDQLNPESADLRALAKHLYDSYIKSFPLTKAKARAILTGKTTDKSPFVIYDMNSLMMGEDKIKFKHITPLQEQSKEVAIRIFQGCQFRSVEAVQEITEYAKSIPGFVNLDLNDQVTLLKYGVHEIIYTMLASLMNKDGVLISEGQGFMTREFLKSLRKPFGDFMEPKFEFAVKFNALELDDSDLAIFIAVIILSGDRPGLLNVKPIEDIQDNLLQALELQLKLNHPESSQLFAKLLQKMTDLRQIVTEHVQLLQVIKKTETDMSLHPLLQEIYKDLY
The experiment in a line: Maximum transcriptional activation of human PPAR gamma receptor.

The target in data set [4] is T3, Peroxisome proliferator-activated receptor alpha (Homo sapiens, UniProt Q07869).
T3 sequence (Q07869 whole entry): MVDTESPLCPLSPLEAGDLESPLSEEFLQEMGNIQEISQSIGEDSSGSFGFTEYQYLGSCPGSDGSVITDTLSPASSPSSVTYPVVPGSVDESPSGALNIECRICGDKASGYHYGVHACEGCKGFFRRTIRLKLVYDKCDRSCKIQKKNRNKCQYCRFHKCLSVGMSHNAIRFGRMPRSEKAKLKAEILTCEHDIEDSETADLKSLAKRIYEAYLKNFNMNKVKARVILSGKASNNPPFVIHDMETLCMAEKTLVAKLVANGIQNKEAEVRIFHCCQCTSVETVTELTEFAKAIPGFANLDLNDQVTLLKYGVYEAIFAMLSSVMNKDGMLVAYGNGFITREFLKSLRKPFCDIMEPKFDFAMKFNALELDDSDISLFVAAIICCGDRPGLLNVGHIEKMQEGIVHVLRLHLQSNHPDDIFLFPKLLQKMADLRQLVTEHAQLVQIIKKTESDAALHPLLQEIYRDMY
The experiment in a line: Maximum transcriptional activation of human PPAR alpha receptor.

Data set [5] has as its target T2, Peroxisome proliferator-activated receptor gamma. In words: Maximum transcriptional activation of human PPAR gamma receptor; IA=inactive.
Data set [6] addresses T3, Peroxisome proliferator-activated receptor alpha. The experiment in a line: Maximum transcriptional activation of human PPAR alpha receptor; IA=inactive.
Data set [7] has as its target T4, Peroxisome proliferator-activated receptor gamma (Mus musculus, UniProt P37238).
T4 sequence (P37238 whole entry): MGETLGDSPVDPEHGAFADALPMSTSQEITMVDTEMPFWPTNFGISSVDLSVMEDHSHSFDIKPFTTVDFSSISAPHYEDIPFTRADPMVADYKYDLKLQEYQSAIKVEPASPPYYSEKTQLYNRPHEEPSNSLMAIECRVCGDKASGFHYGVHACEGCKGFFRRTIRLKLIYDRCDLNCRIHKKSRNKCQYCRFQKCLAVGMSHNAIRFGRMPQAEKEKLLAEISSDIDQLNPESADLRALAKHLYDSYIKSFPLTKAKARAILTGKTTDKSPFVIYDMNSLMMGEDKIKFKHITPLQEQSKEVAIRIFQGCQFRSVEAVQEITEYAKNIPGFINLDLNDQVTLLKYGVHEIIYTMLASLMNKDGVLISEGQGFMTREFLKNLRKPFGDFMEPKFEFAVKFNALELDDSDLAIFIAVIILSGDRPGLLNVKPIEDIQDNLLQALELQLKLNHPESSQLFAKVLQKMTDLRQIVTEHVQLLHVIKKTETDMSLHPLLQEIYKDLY
In words: Activity against murine PPAR gamma receptor.

Data set [8] is described as follows: Half-life was measured in mice. The following applies: mouse, in vivo. The data set is classed as ADME, organism-based.

As for `Cc1nc(-c2ccc(C(F)(F)F)cc2)sc1COc1ccc(CCC(=O)O)cc1`, the EC50 in data set [1] is 0.09 µM; in data set [3] it was 7.04 µM; in data set [4], 3 µM. The same compound registered an IC50 in data set [2] of 0.03 µM.

For the compound `Cc1cc(SCc2oc(-c3ccc(C(F)(F)F)cc3)nc2C)ccc1OCC(=O)O`, the EC50 in data set [1] was 0.01 µM; in data set [3], 1.61 µM; in data set [4], 2.5 µM. This compound also had a half-inhibitory concentration (IC50) in data set [2] of 0.003 µM.

In the case of `Cc1nc(-c2ccc(C(F)(F)F)cc2)oc1COc1ccc(C(=O)O)cc1`, the EC50 in data set [1] was 5.9 µM; in data set [5], “Not Active”; in data set [6] it was “Not Active”. In data set [2], this compound yielded an IC50 of 5.5 µM.

`Cc1cc(OCc2oc(-c3ccc(C(F)(F)F)cc3)nc2C)ccc1OCC(=O)O`: the EC50 in data set [1] is 0.03 µM; in data set [5] it was “Not Active”; in data set [4], 3.2 µM. The same compound showed an IC50 in data set [2] of 0.03 µM.

Consider `Cc1nc(-c2ccc(C(F)(F)F)cc2)oc1CSc1ccc(OCC(=O)O)cc1`, for which the figures for the EC50 in data set [1], in data set [3] and in data set [6] were 0.42 µM, 6.4 µM and “Not Active”, respectively. In data set [2], this compound came in with a concentration for half-maximal inhibition (IC50) of 0.09 µM.

As for `Cc1cc(SCc2sc(-c3ccc(C(F)(F)F)c(F)c3)nc2C)ccc1OCC(=O)O`, the results for the EC50 in data set [3], in data set [7] and in data set [4] were 2 µM, over 10 µM and 1.1 µM, respectively.

For `Cc1nc(-c2ccc(C(F)(F)F)cc2)sc1COc1ccc(CC(=O)O)cc1`, the EC50 came out at 1.9 µM in data set [1], 7.9 µM in data set [3] and 6.9 µM in data set [4]. Besides, the concentration for half-maximal inhibition (IC50) in data set [2] came to 1 µM.

Consider `Cc1nc(-c2ccc(C(F)(F)F)cc2)oc1COc1ccc(CCC(=O)O)cc1`, for which, in data set [8], the half-life is under 10 min. Further, the EC50 in data set [1] came out at 0.06 µM; in data set [3], 3.3 µM; in data set [4], 0.28 µM. The IC50 in data set [2] is 0.09 µM.

Consider `Cc1cc(OCc2sc(-c3ccc(C(F)(F)F)cc3)nc2C)ccc1CCC(=O)O`, for which the EC50 in data set [1] stood at 0.03 µM; in data set [3], 4.2 µM; in data set [4], 1.7 µM. The compound also registered an IC50 in data set [2] of 0.06 µM.

Consider `Cc1cc(OCc2sc(-c3ccc(C(F)(F)F)cc3)nc2C)ccc1/C=C/C(=O)O`, for which the EC50 is 0.02 µM in data set [1], 2.7 µM in data set [3] and 3.2 µM in data set [4]. Moreover, the IC50 in data set [2] was 1 µM.

As to `Cc1nc(-c2ccc(C(F)(F)F)cc2)oc1COc1ccc(OCC(=O)O)cc1`, the EC50 in data set [1] is 0.47 µM; in data set [3], 9.8 µM; in data set [6] it was “Not Active”. For the same compound, the IC50 in data set [2] was 0.34 µM.

Broadly, the EC50 is the concentration at which the effect is half-maximal. Lower therefore signals higher potency in that assay. The IC50 is the midpoint of a concentration-inhibition curve. Low values mean greater potency in that assay, high ones weaker potency in that assay. For orientation: half-life means how long it takes for the measured level to halve.

For the origin of these results see ChEMBL document CHEMBL1136424, “Novel selective small molecule agonists for peroxisome proliferator-activated receptor delta (PPARdelta)--synthesis and biological activity” (Bioorg Med Chem Lett, 2003).
